From patent publication US12624127B2, “Chitosan derivatives as antimicrobials and synergistic combinations thereof” (priority 2022, dated 2026)

Experiments:
[1] = system: 3T3 cells
Experimental: In a 96-well plate, 3T3 cells were co-cultured for 24 h at 37° C. with polymer (100 μg/mL or 200 μg/mL) at initial cell density of 1×10^5 cells per well. At the end of the incubation period, the culture medium was removed, each well was washed with PBS followed by the addition of MTT solution, and the plate was incubated for 4 h at 37° C. The MTT medium was then removed, 100 μL of DMSO was added to each well, the plate was shaken at 100 rpm for 15 min and the absorbance at 570 nm was measured with plate reader (BIO-RAD Benchmark Plus, US).

[2] = set-up: species or system mice; details: mouse, in vivo, ip, 25 mg/kg
Experimental: The biomarkers were determined before treatment (Day 0), and Day 1 and Day 7 after administration. The biomarkers of Day 0 were the untreated controls. The animal experiments were carried out in accordance to the Code of Practice for the Institutional Care and Use of Animals for Scientific Purposes and were approved by the Ethics Committee of Ningbo University.

[3] = system: MDR A. baumannii (AB-1); test: Neutropenic lung infection model in BALB/c mice; type: in vivo, Acinetobacter baumannii; details: rifampicin 10 mg/kg alone, 24 h
Experimental: Bacterial cultures of MDR . baumannii (AB-1) were prepared and used to infect 8-week-old female BALB/c mice. 10^8 CFU/mL of AB-1 (30 μL) was inhaled by the mouse to introduce the infection via the intranasal route. After 2 h of infection, a specific dosage of antibiotic (novobiocin or rifampicin, 10 mg/kg), 2,6-DAC (25 mg/kg) or the combination of antibiotic (novobiocin or rifampicin, 10 mg/kg) and 2,6-DAC (25 mg/kg) were administrated through the intranasal route for 2,6-DAC and through the intraperitoneal route for antibiotic. Mice euthanasian at indicated time points (24 h) was achieved by CO2 asphyxiation followed by cervical dislocation. For histopathological analysis, the lung was fixed in 10% neutral buffered formalin and embedded in paraffin. The paraffin-embedded sections were stained with H&E. The lung was recovered and counted for bacteria concentration.

[4] = system: rabbit erythrocyte suspension; test: Hemolytic activity test; type: cell-based; details: 78 μg/mL, 1 h
Experimental: Fresh rabbit blood (5 mL) was washed three times with sterilized PBS and diluted to a final concentration of 5% v/v. A series concentration of 2,6-DAC and Gramicidin control were incubated with the prepared erythrocyte suspension for 1 h with shaking in a 96-well plate. The supernatant (80 μL) was aliquoted to a new plate after centrifugation at 1000 g for 10 min. The absorbance at 540 nm was recorded by the TECAN microplate reader. 0.1% Triton X-100 that can lyse red blood cells completely was used as the positive control (Op), and PBS was used as the negative control (On). The percentage of hemolysis was determined by the following equation: Hemolysis%=[(Ox−On)/(Op−On)]×100% Results and Discussion

Compound: 2,6-Diamino Chitosan [Compound 5a]
- Biocompatibility (in words) [1]: good biocompatibility
- Change in biomarkers of kidney and liver functions (in words) [2]: did not cause a significant change

Compound: CO[C@H]1/C=C/O[C@@]2(C)Oc3c(C)c(O)c4c(O)c(c(/C=N/N5CCN(C)CC5)c(O)c4c3C2=O)NC(=O)/C(C)=C\C=C\[C@H](C)[C@H](O)[C@@H](C)[C@@H](O)[C@@H](C)[C@H](OC(C)=O)[C@@H]1C [Rifampicin]
- Reduction of lung bacteria, single agent [3]: around 1.6 log10

Compound: Gramicidin
- Hemolysis [4]: 100%
